Measurements published in patent US10722512B2, “Combinations of histone deacetylase inhibitors and either HER2 inhibitors or PI3K inhibitors” (Acetylon Pharmaceuticals, Inc., priority 2013, dated 2020).

Key:
HDAC6 = biological target: T1, HDAC6 (Homo sapiens, UniProt Q9UBN7); assay: HDAC enzyme assays; type: biochemical
T1 construct: purchased BPS Biosciences
Protocol: Compounds for testing were diluted in DMSO to 50 fold the final concentration and a ten point three fold dilution series was made. […] The final enzyme concentrations used in these assays were 3.3 ng/ml (HDAC1), 0.2 ng/ml (HDAC2), 0.08 ng/ml (HDAC3) and 2 ng/ml (HDAC6). […] The IC50 was determined using Graph Pad Prism by a four parameter curve fit.

[1] = Potentiation of PI3K inhibitor GDC-0941 by HDAC6 selective inhibitors (Example 7); type: cell-based; details: non-cytotoxic concentrations of the HDAC6 inhibitor
BT-474 = assay: Potentiation effect of HDAC6 inhibitors on Her2+ breast cancer cell lines; type: cell-based; details: for cytotoxicity of HDAC6 inhibitor alone: BT-474, at the tested concentrations
Protocol: (§1) The IC50 (Inhibitory Concentration at which 50% of the cells are viable) values of these 4 anti-breast cancer compounds were calculated in the presence of increasing concentrations of a HDAC6 inhibitor.

MDA-MB-453 [2] = assay: as above; type: cell-based; details: for cytotoxicity of HDAC6 inhibitor alone: MDA-MB-453, at the tested concentrations
Protocol: as §1

[3] = system: A549 and MDA-MB-231 cancer cells; assay: Migration assay; type: cell-based; details: in the presence or absence of epidermal growth factor (EGF)
Protocol: Many cultured cancer cells are able to migrate across a membrane and this activity indicates the metastatic potential of the cancer cells. The migration of two cancer cells, A549 and MDA-MB-231, were compared in the presence or absence of a HDAC6 inhibitor. The cancer cells were seeded and grown on a membrane surface, and the cell numbers on the other side of the membrane were counted under a microscope after 12 hours. […] In the study, an HDAC inhibitor was added to the cells either 2 hours before or when the migration was measured. The effect of HDAC6 inhibitor on Epidermal Growth Factor (EGF) stimulated cancer cell migration using 20 ng/ml of EGF in the assay was investigated.
The protocol for the Migration Assay was as follows. The compounds were prepared in DMSO at 400× stock of the final required concentrations.
200 μl of warm basal RPMI1640 medium was added to the interior of the inserts, allowed to rehydrate for 2 hours in a humidified tissue culture incubator at 37° C., 5% CO2 atmosphere. […] The number of migrated cells were counted under a microscope in five fields at 100× magnification. The viable cells were seeded in the 96 well plate with the same treatment as in the migration assay were measured using CTG (Cell Titer Glow).

BT-549 = assay: Breast cancer cell viability, 48 hours, MTA assay; type: cell-based; details: Homo sapiens, BT-549, 48 h
Text: (§2) Cell viabilities were used to calculate “Fraction Affected” (Fa) and “Combination Index” (CI) values using the Chou-Talalay method. Any combination with a CI value<0.70 at a Fa value between 0.25 and 0.75 was defined as positive synergy.

BT474 = assay: Breast cancer cell viability, 48 hours, MTA assay; type: cell-based; details: Homo sapiens, BT-474, 48 h
Text: as §2

Bcap-37 = assay: Breast cancer cell viability, 48 hours, MTA assay; type: cell-based; details: Homo sapiens, Bcap37, 48 h
Text: as §2

HCC1937 = assay: Breast cancer cell viability, 48 hours, MTA assay; type: cell-based; details: Homo sapiens, HCC1937, 48 h
Text: as §2

HCC38 = assay: Breast cancer cell viability, 48 hours, MTA assay; type: cell-based; details: Homo sapiens, HCC38, 48 h
Text: as §2

Hs578T = assay: Breast cancer cell viability, 48 hours, MTA assay; type: cell-based; details: Homo sapiens, Hs-578T, 48 h
Text: as §2

MCF-7 = assay: Breast cancer cell viability, 48 hours, MTA assay; type: cell-based; details: Homo sapiens, MCF7, 48 h
Text: as §2

MDA-MB-231 = assay: Breast cancer cell viability, 48 hours, MTA assay; type: cell-based; details: Homo sapiens, MDA-MB-231, 48 h
Text: as §2

MDA-MB-361 = assay: Breast cancer cell viability, 48 hours, MTA assay; type: cell-based; details: Homo sapiens, MDA-MB-361, 48 h
Text: as §2

MDA-MB-436 = assay: Breast cancer cell viability, 48 hours, MTA assay; type: cell-based; details: Homo sapiens, MDA-MB-436, 48 h
Text: as §2

MDA-MB-453 [4] = assay: Breast cancer cell viability, 48 hours, MTA assay; type: cell-based; details: Homo sapiens, MDA-MB-453, 48 h
Text: as §2

MDA-MB-468 = assay: Breast cancer cell viability, 48 hours, MTA assay; type: cell-based; details: Homo sapiens, MDA-MB-468, 48 h
Text: as §2

MX-1 = assay: Breast cancer cell viability, 48 hours, MTA assay; type: cell-based; details: Homo sapiens, MX1, 48 h
Text: as §2

SK-BR-3 = assay: Breast cancer cell viability, 48 hours, MTA assay; type: cell-based; details: Homo sapiens, SK-BR-3, 48 h
Text: as §2

T-47D* = assay: Breast cancer cell viability, 48 hours, MTA assay; type: cell-based; details: Homo sapiens, T47D, 48 h
Text: as §2

ZR-75-1 = assay: Breast cancer cell viability, 48 hours, MTA assay; type: cell-based; details: Homo sapiens, ZR-75-1, 48 h
Text: as §2

[5] = system: panel of nearly 100 human tumor cell lines; assay: Anti-tumor activity in a panel of nearly 100 human tumor cell lines; type: cell-based; details: Her2+ breast cancer cells versus other major cancer types
[6] = system: Her2 protein, p-EGFR, p-AKT in MDA-MB-453; assay: Her2 protein, p-EGFR and p-AKT levels after treatment; type: cell-based; details: Her2+ breast cancer cell line MDA-MB-453

T1 sequence (Q9UBN7 whole entry): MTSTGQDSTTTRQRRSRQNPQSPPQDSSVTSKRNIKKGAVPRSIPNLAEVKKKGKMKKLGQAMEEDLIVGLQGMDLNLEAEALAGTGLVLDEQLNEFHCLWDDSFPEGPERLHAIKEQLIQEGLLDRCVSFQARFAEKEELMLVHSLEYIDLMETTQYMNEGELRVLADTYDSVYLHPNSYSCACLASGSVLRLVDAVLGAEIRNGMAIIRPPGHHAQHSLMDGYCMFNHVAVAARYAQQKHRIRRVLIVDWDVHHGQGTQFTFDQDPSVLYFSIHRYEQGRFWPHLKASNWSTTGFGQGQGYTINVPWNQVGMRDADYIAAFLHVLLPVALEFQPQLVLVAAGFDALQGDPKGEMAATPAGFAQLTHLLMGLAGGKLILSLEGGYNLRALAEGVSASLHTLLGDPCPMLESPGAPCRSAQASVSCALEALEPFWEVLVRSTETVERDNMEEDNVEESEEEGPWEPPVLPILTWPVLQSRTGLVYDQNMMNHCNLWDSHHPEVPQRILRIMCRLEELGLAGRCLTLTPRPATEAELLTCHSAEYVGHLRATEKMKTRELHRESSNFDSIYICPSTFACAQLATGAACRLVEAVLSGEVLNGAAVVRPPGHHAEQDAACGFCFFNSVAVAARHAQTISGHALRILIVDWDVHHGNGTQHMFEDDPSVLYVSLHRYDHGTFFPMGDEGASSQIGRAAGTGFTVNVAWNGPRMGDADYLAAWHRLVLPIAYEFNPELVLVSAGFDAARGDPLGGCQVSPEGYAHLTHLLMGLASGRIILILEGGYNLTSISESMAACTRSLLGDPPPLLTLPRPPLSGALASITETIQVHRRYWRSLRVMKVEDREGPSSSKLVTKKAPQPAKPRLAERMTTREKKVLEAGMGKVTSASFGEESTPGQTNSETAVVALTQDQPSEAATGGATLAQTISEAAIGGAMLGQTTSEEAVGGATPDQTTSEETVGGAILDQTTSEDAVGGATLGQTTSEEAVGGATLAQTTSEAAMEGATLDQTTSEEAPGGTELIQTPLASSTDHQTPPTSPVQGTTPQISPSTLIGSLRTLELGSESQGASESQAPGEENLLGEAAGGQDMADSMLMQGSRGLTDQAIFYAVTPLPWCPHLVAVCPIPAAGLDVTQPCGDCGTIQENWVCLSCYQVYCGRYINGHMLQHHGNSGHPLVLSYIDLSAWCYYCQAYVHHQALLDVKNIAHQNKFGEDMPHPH

O=C(NO)c1cnc(NC2(c3cccc(F)c3)CCCCC2)nc1 [Compound C, 2-((1-(3-fluorophenyl)cyclohexyl)amino)-N-hydroxypyrimidine-5-carboxamide]
potency as HDAC6 selective inhibitor (HDAC6): low nM potency | potentiation of GDC-0941 (decrease in the IC50 value) [1]: GDC-0941 becomes more potent | cytotoxicity of HDAC6 inhibitor alone (BT-474): not cytotoxic | sensitization to lapatinib and PI3K inhibitors (BT-474; BT-474, lapatinib, IPI-145, GDC-0941 and CAL-101): able to sensitize | cytotoxicity of HDAC6 inhibitor alone (MDA-MB-453 [2]): not cytotoxic | sensitization to lapatinib and PI3K inhibitors (MDA-MB-453 [2]; MDA-MB-453, lapatinib, IPI-145, GDC-0941 and CAL-101): able to sensitize | cancer cell migration [3]: blocked cancer cell migration

O=C(CCCCCCNC(=O)c1cnc(N(c2ccccc2)c2ccccc2)nc1)NO [Compound A, 2-(diphenylamino)-N-(7-(hydroxyamino)-7-oxoheptyl) pyrimidine-5-carboxamide]
IC50 (BT-549): 8.97 µM | IC50 (BT474): 2320 nM | IC50 (Bcap-37): 7.66 µM | IC50 (HCC1937): 11.2 µM | IC50 (HCC38): 7.76 µM | IC50 (Hs578T): 5.57 µM | IC50 (MCF-7): 8.95 µM | IC50 (MDA-MB-231): 7.49 µM | IC50 (MDA-MB-361): 4.51 µM | IC50 (MDA-MB-436): 25.7 µM | IC50 (MDA-MB-453 [4]): 1250 nM | IC50 (MDA-MB-468): 14.9 µM | IC50 (MX-1): 6.38 µM | IC50 (SK-BR-3): 1940 nM | IC50 (T-47D*): 5 µM | IC50 (ZR-75-1): 3.57 µM | potentiation of GDC-0941 (decrease in the IC50 value) [1]: GDC-0941 becomes more potent | cytotoxicity of HDAC6 inhibitor alone (BT-474): not cytotoxic | cytotoxicity of HDAC6 inhibitor alone (MDA-MB-453 [2]): not cytotoxic | sensitivity of Her2+ breast cancer cells within the panel [5]: among the most sensitive cells | Her2 protein, p-EGFR and p-AKT levels [6]: decrease of Her2 protein, p-EGFR, and p-AKT
